Data: PubChem BioAssay (NCI)
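Where inhibition never reached the appropriate level, the endpoint shown equals the highest concentration tested. Otherwise, values were interpolated linearly from a five-concentration, 48-hour dose response in 96-well plates. TGI: concentration producing complete growth inhibition.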

Tests used:
Test in all cases: inhibition of tumour cell growth, NCI panel, 48 h
UACC-257 melanoma = test system: UACC-257 melanoma
SNB-19 CNS = test system: SNB-19 CNS
UO-31 renal = test system: UO-31 renal
ACHN renal = test system: ACHN renal
TK-10 renal = test system: TK-10 renal
MDA-MB-231 breast = test system: MDA-MB-231 breast
EKVX NSCLC = test system: EKVX NSCLC
M14 melanoma = test system: M14 melanoma
HOP-62 NSCLC = test system: HOP-62 NSCLC
SN12C renal = test system: SN12C renal
KM12 colon = test system: KM12 colon
K-562 leukemia = test system: K-562 leukemia
NCI/ADR-RES ovarian = test system: NCI/ADR-RES ovarian
PC-3 prostate = test system: PC-3 prostate
SK-MEL-28 melanoma = test system: SK-MEL-28 melanoma
A549 NSCLC = test system: A549 NSCLC
LOX IMVI melanoma = test system: LOX IMVI melanoma
IGROV1 ovarian = test system: IGROV1 ovarian
MCF7 breast = test system: MCF7 breast
CAKI-1 renal = test system: CAKI-1 renal
OVCAR-3 ovarian = test system: OVCAR-3 ovarian
OVCAR-4 ovarian = test system: OVCAR-4 ovarian
SK-MEL-2 melanoma = test system: SK-MEL-2 melanoma
CCRF-CEM leukemia = test system: CCRF-CEM leukemia
OVCAR-8 ovarian = test system: OVCAR-8 ovarian
SF-539 CNS = test system: SF-539 CNS
HT29 colon = test system: HT29 colon
RPMI-8226 leukemia = test system: RPMI-8226 leukemia
HOP-92 NSCLC = test system: HOP-92 NSCLC
SF-295 CNS = test system: SF-295 CNS
HCT-116 colon = test system: HCT-116 colon
MOLT-4 leukemia = test system: MOLT-4 leukemia
SF-268 CNS = test system: SF-268 CNS
SR leukemia = test system: SR leukemia
UACC-62 melanoma = test system: UACC-62 melanoma
RXF 393 renal = test system: RXF 393 renal
DU-145 prostate = test system: DU-145 prostate
NCI-H460 lung = test system: NCI-H460 lung
NCI-H522 lung = test system: NCI-H522 lung
HS 578T breast = test system: HS 578T breast
MDA-MB-435 = test system: MDA-MB-435
OVCAR-5 ovarian = test system: OVCAR-5 ovarian
A498 renal = test system: A498 renal
T-47D breast = test system: T-47D breast
786-0 renal = test system: 786-0 renal
BT-549 breast = test system: BT-549 breast
COLO 205 colon = test system: COLO 205 colon
U251 CNS = test system: U251 CNS
HL-60(TB) leukemia = test system: HL-60(TB) leukemia
MALME-3M melanoma = test system: MALME-3M melanoma
NCI-H23 lung = test system: NCI-H23 lung
HCT-15 colon = test system: HCT-15 colon
HCC-2998 colon = test system: HCC-2998 colon
SK-MEL-5 melanoma = test system: SK-MEL-5 melanoma
NCI-H226 lung = test system: NCI-H226 lung
SW-620 colon = test system: SW-620 colon

Measured: TGI

COc1ccc(C2=C3SC=c4ccccc4=C3ON=C2c2ccccc2)cc1
> 100 µM: UACC-257 melanoma | SNB-19 CNS | UO-31 renal | ACHN renal | TK-10 renal | MDA-MB-231 breast | EKVX NSCLC | M14 melanoma | HOP-62 NSCLC | SN12C renal | KM12 colon | K-562 leukemia | NCI/ADR-RES ovarian | PC-3 prostate | SK-MEL-28 melanoma | A549 NSCLC | LOX IMVI melanoma | IGROV1 ovarian | MCF7 breast | CAKI-1 renal | OVCAR-3 ovarian | OVCAR-4 ovarian | SK-MEL-2 melanoma | CCRF-CEM leukemia | OVCAR-8 ovarian | SF-539 CNS | HT29 colon | RPMI-8226 leukemia | HOP-92 NSCLC | SF-295 CNS | HCT-116 colon | MOLT-4 leukemia | SF-268 CNS | SR leukemia | UACC-62 melanoma | RXF 393 renal | DU-145 prostate | NCI-H460 lung | NCI-H522 lung | HS 578T breast | MDA-MB-435 | OVCAR-5 ovarian | A498 renal | T-47D breast | 786-0 renal | BT-549 breast | COLO 205 colon | U251 CNS | HL-60(TB) leukemia | MALME-3M melanoma | NCI-H23 lung | HCT-15 colon | HCC-2998 colon | SK-MEL-5 melanoma | NCI-H226 lung | SW-620 colon
